Experimental data taken from PubChem BioAssay (NCI).
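Test compounds were applied to cells in 96-well plates for 48 hours at 5 doses. GI50 marks 50% less growth. TGI marks complete inhibition of growth.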

Columns and labels:
Test in all cases: inhibition of tumour cell growth, NCI panel, 48 h
[1] = system: A498 renal
[2] = system: NCI-H460 lung
[3] = system: TK-10 renal
[4] = system: U251 CNS
[5] = system: HT29 colon
[6] = system: LOX IMVI melanoma
[7] = system: K-562 leukemia
[8] = system: NCI-H522 lung
[9] = system: KM12 colon
[10] = system: EKVX NSCLC
[11] = system: RPMI-8226 leukemia
[12] = system: MOLT-4 leukemia
[13] = system: UACC-62 melanoma
[14] = system: SF-295 CNS
[15] = system: OVCAR-4 ovarian
[16] = system: SK-MEL-2 melanoma
[17] = system: DMS 273 small cell lung
[18] = system: OVCAR-3 ovarian
[19] = system: HCT-15 colon
[20] = system: SNB-19 CNS
[21] = system: HOP-62 NSCLC
[22] = system: OVCAR-5 ovarian
[23] = system: HCC-2998 colon
[24] = system: UACC-257 melanoma
[25] = system: M14 melanoma
[26] = system: OVCAR-8 ovarian
[27] = system: SNB-78 CNS
[28] = system: SNB-75 CNS
[29] = system: LXFL 529 NSCLC
[30] = system: HL-60(TB) leukemia
[31] = system: SK-OV-3 ovarian
[32] = system: SK-MEL-28 melanoma
[33] = system: NCI-H23 lung
[34] = system: UO-31 renal
[35] = system: CCRF-CEM leukemia
[36] = system: SF-268 CNS
[37] = system: MALME-3M melanoma
[38] = system: HOP-92 NSCLC
[39] = system: HCT-116 colon
[40] = system: DLD-1 colon
[41] = system: KM20L2 colon
[42] = system: SN12C renal
[43] = system: IGROV1 ovarian
[44] = system: ACHN renal
[45] = system: COLO 205 colon
[46] = system: SW-620 colon
[47] = system: 786-0 renal
[48] = system: A549 NSCLC
[49] = system: SK-MEL-5 melanoma
[50] = system: SF-539 CNS

Work on `CCC(=O)[O-].CCC(=O)[O-].N.N.N.N.[Co+3].[O-][Cl+3]([O-])([O-])[O-]` yielded a GI50 [1] of over 100 µM, a TGI [1] of over 100 µM and a GI50 [2] of over 100 µM. The TGI [2] was over 100 µM, the GI50 [3] was over 100 µM and the TGI [3] was over 100 µM. For the same compound, the GI50 [4] was over 100 µM, the TGI [4] was over 100 µM and the GI50 [5] was over 100 µM. For the same compound, the TGI [5] was over 100 µM, the GI50 [6] was over 100 µM and the TGI [6] was over 100 µM. For the same compound, the GI50 [7] was over 100 µM, the TGI [7] was over 100 µM and the GI50 [8] was over 100 µM. The TGI [8] was over 100 µM, the GI50 [9] was over 100 µM and the TGI [9] was over 100 µM. It also gave a GI50 [10] of over 100 µM, a TGI [10] of over 100 µM and a GI50 [11] of over 100 µM. It also gave a TGI [11] of over 100 µM, a GI50 [12] of over 100 µM and a TGI [12] of over 100 µM. For the same compound, the GI50 [13] was over 100 µM, the TGI [13] was over 100 µM and the GI50 [14] was over 100 µM. For the same compound, the TGI [14] was over 100 µM, the GI50 [15] was over 100 µM and the TGI [15] was over 100 µM. For the same compound, the GI50 [16] was over 100 µM, the TGI [16] was over 100 µM and the GI50 [17] was over 100 µM. It also gave a TGI [17] of over 100 µM, a GI50 [18] of over 100 µM and a TGI [18] of over 100 µM. It also gave a GI50 [19] of over 100 µM, a TGI [19] of over 100 µM and a GI50 [20] of over 100 µM. It also gave a TGI [20] of over 100 µM, a GI50 [21] of over 100 µM and a TGI [21] of over 100 µM. The GI50 [22] was over 100 µM, the TGI [22] was over 100 µM and the GI50 [23] was over 100 µM. It also gave a TGI [23] of over 100 µM, a GI50 [24] of over 100 µM and a TGI [24] of over 100 µM. It also gave a GI50 [25] of over 100 µM, a TGI [25] of over 100 µM and a GI50 [26] of over 100 µM. For the same compound, the TGI [26] was over 100 µM, the GI50 [27] was over 100 µM and the TGI [27] was over 100 µM. For the same compound, the GI50 [28] was over 100 µM, the TGI [28] was over 100 µM and the GI50 [29] was over 100 µM. For the same compound, the TGI [29] was over 100 µM, the GI50 [30] was over 100 µM and the TGI [30] was over 100 µM. It also gave a GI50 [31] of over 100 µM, a TGI [31] of over 100 µM and a GI50 [32] of over 100 µM. For the same compound, the TGI [32] was over 100 µM, the GI50 [33] was over 100 µM and the TGI [33] was over 100 µM. The GI50 [34] was over 100 µM, the TGI [34] was over 100 µM and the GI50 [35] was over 100 µM. It also gave a TGI [35] of over 100 µM, a GI50 [36] of over 100 µM and a TGI [36] of over 100 µM. For the same compound, the GI50 [37] was over 100 µM, the TGI [37] was over 100 µM and the GI50 [38] was 27.2 µM. The TGI [38] was over 100 µM, the GI50 [39] was over 100 µM and the TGI [39] was over 100 µM. The GI50 [40] was over 100 µM, the TGI [40] was over 100 µM and the GI50 [41] was over 100 µM. It also gave a TGI [41] of over 100 µM, a GI50 [42] of over 100 µM and a TGI [42] of over 100 µM. For the same compound, the GI50 [43] was over 100 µM, the TGI [43] was over 100 µM and the GI50 [44] was over 100 µM. It also gave a TGI [44] of over 100 µM, a GI50 [45] of over 100 µM and a TGI [45] of over 100 µM. It also gave a GI50 [46] of over 100 µM, a TGI [46] of over 100 µM and a GI50 [47] of over 100 µM. For the same compound, the TGI [47] was over 100 µM, the GI50 [48] was over 100 µM and the TGI [48] was over 100 µM. For the same compound, the GI50 [49] was over 100 µM, the TGI [49] was over 100 µM and the GI50 [50] was over 100 µM. It also gave a TGI [50] of over 100 µM.
